pKi: −log10 of the molar value. In brackets after ≈: the same amount, converted by molar mass.
Key:
Adenosine receptor A1 [1] = biological target: T1, Adenosine receptor A1 (Cavia porcellus, UniProt P47745); type: cell membranes, Brain membranes
T1 sequence (P47745 whole entry): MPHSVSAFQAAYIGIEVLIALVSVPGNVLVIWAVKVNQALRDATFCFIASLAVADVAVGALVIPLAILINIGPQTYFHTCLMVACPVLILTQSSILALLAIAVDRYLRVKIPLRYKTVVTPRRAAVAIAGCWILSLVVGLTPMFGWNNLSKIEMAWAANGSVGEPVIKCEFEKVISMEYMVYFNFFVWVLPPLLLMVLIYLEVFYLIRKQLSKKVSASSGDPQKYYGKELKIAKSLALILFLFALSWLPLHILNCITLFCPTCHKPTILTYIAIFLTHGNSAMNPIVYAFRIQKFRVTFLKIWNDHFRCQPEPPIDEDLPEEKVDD

physchem = conditions: water
Description: Solubility of the compound(10 mg) was measured in water(2.5 mL) at 20 degree celsius for 1 hr

[2] = Solubility was measured in saline; type: physicochemical
Adenosine receptor A1 [3] = biological target: T1, Adenosine receptor A1; type: cell membranes, Brain membranes; remark: listed apart in the source
Adenosine A2 receptor = Adenosine A2 receptor (Homo sapiens, UniProt P29275+P29274); assay: Binding affinity for adenosine A2 receptor using N-[3H]-ethyladenosin-5''-uronamide in guinea pig forebrain membranes

CCCN1C(=O)N2C[C@H](CC)N=C2c2[nH]c(C34CC5CC(CC3C5)C4)nc21
pKi (Adenosine receptor A1 [1]): 6.92 | solubility at 1 h (physchem): 2900 µg/mL (≈ 7890 µM)

CCCn1c(=O)c2[nH]c(C3CCC(=O)C3)nc2n(CCC)c1=O (stereo not given)
solubility [2]: 200 µg/mL (≈ 628 µM) | solubility at 1 h (physchem): 220 µg/mL (≈ 691 µM)

CCCN1C(=O)N2CC(CC)N=C2c2[nH]c(C34CC5CC(CC3C5)C4)nc21 (stereo not given)
solubility [2]: 990 µg/mL (≈ 2690 µM) | pKi (Adenosine receptor A1 [3]): 8.24 | solubility at 1 h (physchem): 3200 µg/mL (≈ 8710 µM)

CCCn1c(=O)c2[nH]c(C34CC5CC(CC3C5)C4)nc2n(CCC)c1=O [ROLOFYLLINE]
solubility [2]: 0.6 µg/mL (≈ 1.68 µM) | solubility at 1 h (physchem): 0.5 µg/mL (≈ 1.4 µM)

CCCn1c(=O)c2[nH]c(C3CCCC3)nc2n(CCC)c1=O [1,3-DIPROPYL-8-CYCLOPENTYLXANTHINE [DPCPX]]
solubility at 1 h (physchem): 3.3 µg/mL (≈ 10.8 µM)

CCCN1C(=O)N2C[C@@H](CC)N=C2c2[nH]c(C34CC5CC(CC3C5)C4)nc21
pKi (Adenosine receptor A1 [1]): 8.57 | solubility at 1 h (physchem): 3000 µg/mL (≈ 8160 µM)

CCCn1c(=O)c2nc(C(C3CC3)C3CC3)[nH]c2n(CCC)c1=O
solubility [2]: 5.8 µg/mL (≈ 17.6 µM) | Ki (Adenosine A2 receptor): 430 nM | solubility at 1 h (physchem): 8.5 µg/mL (≈ 25.7 µM)
